Source: the supplement of paper PMC4862054

Assays:
Conditions in all cases: 72 h
[1] = tested on: HCC1143
In short: (§1)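 For viability and cell death testing, 384-well plates carried compound at 5 concentrations in 10-fold steps over a compound-specific 10,000-fold range, and breast cancer cell lines were seeded in 20 µl suspension. After 72 h incubation, cell death was read by CellTox Green fluorescence (485/520 nm) before viability was read by CellTiter-Glo luminescence. EC50 was fitted from the dose-response curves and censored at the top concentration. Normalisation on each plate was to 0.1 % DMSO and a positive kill control.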

[2] = tested on: CAL-85-1
In short: as §1

[3] = tested on: MFM-223
In short: as §1

[4] = tested on: HCC1937
In short: as §1

[5] = tested on: CAL-120
In short: as §1

[6] = tested on: HDQ-P1
In short: as §1

[7] = tested on: MDA-MB-231
In short: as §1

[8] = tested on: BT-549
In short: as §1

[9] = tested on: CAL-148
In short: as §1

[10] = tested on: MDA-MB-453
In short: as §1

[11] = tested on: HCC1599
In short: as §1

[12] = tested on: SK-BR-3
In short: as §1

[13] = tested on: DU-4475
In short: as §1

[14] = tested on: HCC1143; remark: listed apart in the source
Description: (§2)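 Drug sensitivity and resistance testing (DSRT) of breast cancer cell lines in 384-well plates, 5 concentrations in 10-fold dilutions over a compound-specific 10,000-fold range. After 72 h, cytotoxicity was read by CellTox Green fluorescence and viability by CellTiter-Glo luminescence (multiplexed), normalised to DMSO and benzethonium chloride controls. EC50 is the inflection point of the fitted dose-response curve (bottom asymptote free, so it can be relative for partial curves) and is censored at the highest tested concentration. Rows with DSS 0 (no meaningful response) were excluded.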

[15] = tested on: CAL-85-1; remark: listed apart in the source
Description: as §2

[16] = tested on: HCC1937; remark: listed apart in the source
Description: as §2

[17] = tested on: CAL-51
Description: as §2

[18] = tested on: MDA-MB-231; remark: listed apart in the source
Description: as §2

[19] = tested on: MDA-MB-453; remark: listed apart in the source
Description: as §2

[20] = tested on: BT-474
Description: as §2

[21] = tested on: HDQ-P1; remark: listed apart in the source
Description: as §2

[22] = tested on: CAL-85-1; remark: listed apart in the source
In short: (§3)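 Breast cancer cell lines in 20 µl suspension were seeded onto 384-well plates that already held compound dissolved in 5 µl medium and were incubated for 72 h. Viability was measured by adding 2.5 µl CellTiter-Blue for 2 h at 37 °C and reading fluorescence at 560/590 nm. Each plate was normalised to vehicle and a positive kill control and checked by Z'-factor. EC50 was taken from a fitted percent-inhibition dose-response curve, censored at the highest concentration, and rows with a drug sensitivity score of zero were removed.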

[23] = tested on: CAL-51; remark: listed apart in the source
In short: as §3

[24] = tested on: HDQ-P1; remark: listed apart in the source
In short: as §3

[25] = tested on: DU-4475; remark: listed apart in the source
In short: as §3

[26] = tested on: HCC1143; remark: listed apart in the source
In short: as §3

[27] = tested on: MFM-223; remark: listed apart in the source
In short: as §3

[28] = tested on: MDA-MB-468
In short: as §3

[29] = tested on: MDA-MB-436
In short: as §3

[30] = tested on: BT-549; remark: listed apart in the source
In short: as §3

[31] = tested on: Hs578T
In short: as §3

[32] = tested on: BT-474; remark: listed apart in the source
In short: as §3

[33] = tested on: SK-BR-3; remark: listed apart in the source
In short: as §3

[34] = tested on: MDA-MB-436; remark: listed apart in the source
In short: as §1

[35] = tested on: Hs578T; remark: listed apart in the source
In short: as §1

[36] = tested on: MFM-223; remark: listed apart in the source
Description: as §2

[37] = tested on: BT-549; remark: listed apart in the source
Description: as §2

[38] = tested on: MCF-10A
In short: as §1

[39] = tested on: MDA-MB-436; remark: listed apart in the source
Description: as §2

SMILES	EC50, CellTiter-Glo [1]	EC50, CellTiter-Glo [2]	EC50, CellTiter-Glo [3]	EC50, CellTiter-Glo [4]	EC50, CellTiter-Glo [5]	EC50, CellTiter-Glo [6]	EC50, CellTiter-Glo [7]	EC50, CellTiter-Glo [8]	EC50, CellTiter-Glo [9]	EC50, CellTiter-Glo [10]	EC50, CellTiter-Glo [11]	EC50, CellTiter-Glo [12]	EC50, CellTiter-Glo [13]	EC50, CellTox Green [14]	EC50, CellTox Green [15]	EC50, CellTox Green [16]	EC50, CellTox Green [17]	EC50, CellTox Green [18]	EC50, CellTox Green [19]	EC50, CellTox Green [20]	EC50, CellTox Green [21]	EC50, CellTiter-Blue viability [22]	EC50, CellTiter-Blue viability [23]	EC50, CellTiter-Blue viability [24]	EC50, CellTiter-Blue viability [25]	EC50, CellTiter-Blue viability [26]	EC50, CellTiter-Blue viability [27]	EC50, CellTiter-Blue viability [28]	EC50, CellTiter-Blue viability [29]	EC50, CellTiter-Blue viability [30]	EC50, CellTiter-Blue viability [31]	EC50, CellTiter-Blue viability [32]	EC50, CellTiter-Blue viability [33]	EC50, CellTiter-Glo [34]	EC50, CellTiter-Glo [35]	EC50, CellTox Green [36]	EC50, CellTox Green [37]	EC50, CellTiter-Glo [38]	EC50, CellTox Green [39]
O=C(CCCCCCC(=O)Nc1ccc([C@H]2O[C@@H](CSc3nc(-c4ccccc4)c(-c4ccccc4)o3)C[C@@H](c3ccc(CO)cc3)O2)cc1)NO [Tubacin]	6.4 µM	2.08 µM	3.59 µM	4.67 µM	1.61 µM	3.46 µM	2.43 µM	7.35 µM	2.9 µM	1.75 µM	3.82 µM	8.75 µM	1.48 µM	6.85 µM	3.16 µM	0.124 µM	2.07 µM	2.01 µM	8.37 µM	1.88 µM	–	–	–	–	–	–	–	–	–	–	–	–	–	–	–	–	–	–	–
C[C@@H](Oc1cc(-c2cnn(C3CCNCC3)c2)cnc1N)c1c(Cl)ccc(F)c1Cl [Crizotinib]	–	–	–	–	–	–	–	–	–	–	–	–	–	–	–	–	–	–	–	–	> 1 µM	6.53 µM	3.14 µM	6.97 µM	4.94 µM	8.17 µM	3.72 µM	3.64 µM	0.275 µM	7.18 µM	7.69 µM	3.54 µM	4.16 µM	–	–	–	–	–	–
Cn1c(Nc2ccc(C(F)(F)F)cc2)nc2cc(Oc3ccnc(-c4ncc(C(F)(F)F)[nH]4)c3)ccc21 [RAF265]	–	0.827 µM	0.291 µM	0.163 µM	0.0972 µM	0.108 µM	–	0.377 µM	–	–	–	–	0.193 µM	–	0.139 µM	–	–	–	–	–	–	–	0.915 µM	0.0823 µM	0.328 µM	0.00143 µM	0.673 µM	–	0.03 µM	0.00414 µM	0.196 µM	–	–	0.137 µM	0.0724 µM	0.6 µM	0.581 µM	–	–
COc1cc2ncnc(Nc3ccc(F)c(Cl)c3)c2cc1NC(=O)/C=C/CN1CCCCC1 [Dacomitinib]	–	0.0568 µM	–	–	–	0.00324 µM	–	–	–	0.0748 µM	–	0.0263 µM	–	–	0.564 µM	–	–	–	–	0.0824 µM	–	–	–	–	–	–	–	–	–	–	–	–	–	–	–	–	–	0.00627 µM	0.319 µM
